Measured values taken from paper PMC6516726 (ACS Catalysis, 2018).
Read-outs that look alike come from different tables or passages of the source.

What was measured:
[1] = target: L25I PETNR (Enterobacter cloacae, UniProt P71278, L26I); conditions: for kobs1 / A2 (amplitude of kobs2 out of total absorbance change) / kobs2: 10 mM NADPH or 25 mM NADH, pH 7.0
[2] = target: L25A PETNR (Enterobacter cloacae, UniProt P71278, L26A); conditions: for kobs1 / kobs2 / A2 (amplitude of kobs2 out of total absorbance change): 10 mM NADPH or 25 mM NADH, pH 7.0
Chain of L25A PETNR (P71278 entry or part of it L26A): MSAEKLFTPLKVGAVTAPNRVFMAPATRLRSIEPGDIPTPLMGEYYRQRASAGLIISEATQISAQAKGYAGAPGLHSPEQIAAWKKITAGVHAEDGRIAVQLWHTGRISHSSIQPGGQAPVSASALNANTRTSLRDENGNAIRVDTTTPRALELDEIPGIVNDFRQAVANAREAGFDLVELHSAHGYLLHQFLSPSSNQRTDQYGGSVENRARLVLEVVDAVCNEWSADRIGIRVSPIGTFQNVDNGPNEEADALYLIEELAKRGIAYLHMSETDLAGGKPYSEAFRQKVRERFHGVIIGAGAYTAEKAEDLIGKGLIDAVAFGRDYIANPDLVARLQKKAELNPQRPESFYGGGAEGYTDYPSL

[3] = target: T1, WT PETNR (Enterobacter cloacae, UniProt P71278); assay: pH dependence of FMN reduction of WT PETNR in MTEN buffer; format: biochemical, Enterobacter Cloacae PB2; set-up: made in house; conditions: for Isotope effect on ΔCp⧧ / Isotope effect on ΔHT0⧧ / Isotope effect on ΔST0⧧: (R)-[4-2H]-NADPH - NADPH
T1 sequence (P71278 entry or part of it): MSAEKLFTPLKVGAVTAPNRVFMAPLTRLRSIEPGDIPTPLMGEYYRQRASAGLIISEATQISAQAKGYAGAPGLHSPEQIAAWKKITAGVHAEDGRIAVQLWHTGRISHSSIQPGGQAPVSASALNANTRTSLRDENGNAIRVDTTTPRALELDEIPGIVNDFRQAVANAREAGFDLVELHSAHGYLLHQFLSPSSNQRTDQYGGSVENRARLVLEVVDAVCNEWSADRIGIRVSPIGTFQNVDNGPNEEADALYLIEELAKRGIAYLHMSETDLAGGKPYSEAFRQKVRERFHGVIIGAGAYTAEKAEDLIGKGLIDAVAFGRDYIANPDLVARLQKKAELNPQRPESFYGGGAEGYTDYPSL
Experimental: (R)-[4-2H]-NADPH at pH 6, pH 7 and pH9 (A) and the corresponding temperature dependencies of the observed primary kinetic isotope effects (B). The measurements were performed in MTEN buffer (50 mM MES, 25 mM Tris, 25 mM ethanola-mine, and 100 mM NaCl), which has a useful buffering capacity and minimal change in ionic strength over the pH range 6-9 in which PETNR is stable; we attempted testing PETNR in pH 5 as well, but the enzyme is unstable at this pH. The observed rate constants of FMN reduction at pH 7 in MTEN buffer are essentially the same to those measured in 50 mM potassium phosphate buffer, pH 7 and similar observation are valid for the KIEs values (Table S3).The rate of FMN reduction is essentially insensitive to pH across the whole temperature range (5-40 °C), and also that KIEs values are essentially not affected by changes in pH (the rate of FMN reduction by (R)-[4-2H]-NADPH is independent of pH as well across all temperatures studied; see Table S3 for extracted thermodynamic parameters). Although these experiments cannot completely exclude any kinetic […]
of H-transfer and protonation (which would lead to pH-dependent rates) which makes it very likely that the observed rate are reporting directly on the H-transfer step.
Table S3. Extracted Thermodynamic Parameters from pH Dependence Studies.
(kJ mol-1) (J mol-1 K-1) (kJ mol-1 K-1)

[4] = target: T1, WT PETNR; assay: Stopped-flow FMN reduction (reductive half-reaction, hydride transfer) of WT PETNR by coenzyme; conditions: for kobs1 / A2 (amplitude of kobs2 out of total absorbance change) / kobs2: 10 mM NADPH or 25 mM NADH, pH 7.0
[5] = T0 = 298 K, fit of kobs1 (5–40 °C) to eq 1
[6] = deuterated minus protiated coenzyme, T0 = 298 K

Chain of L25I PETNR (P71278 entry or part of it L26I): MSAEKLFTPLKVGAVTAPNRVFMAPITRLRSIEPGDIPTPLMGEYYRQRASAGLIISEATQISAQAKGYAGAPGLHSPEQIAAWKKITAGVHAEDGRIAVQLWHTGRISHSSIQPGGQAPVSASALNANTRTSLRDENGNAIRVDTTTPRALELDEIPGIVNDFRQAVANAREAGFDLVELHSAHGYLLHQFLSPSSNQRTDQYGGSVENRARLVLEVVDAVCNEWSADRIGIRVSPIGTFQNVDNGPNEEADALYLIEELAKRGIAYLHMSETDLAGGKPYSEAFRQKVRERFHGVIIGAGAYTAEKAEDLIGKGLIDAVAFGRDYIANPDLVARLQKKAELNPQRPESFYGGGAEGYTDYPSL

## [2H][C@@H]1C=CN([C@@H]2O[C@H](COP(=O)(O)OP(=O)(O)OC[C@H]3O[C@@H](n4cnc5c(N)ncnc54)[C@H](OP(=O)(O)O)[C@@H]3O)[C@@H](O)[C@H]2O)C=C1C(N)=O [(R)-[4-^2H]-NADPH]
[1]; 5 °C
  kobs1: 1.26 ± 0.02 s⁻¹
[1]; 15 °C
  kobs1: 2.46 ± 0.01 s⁻¹
[1]; 20 °C
  A2 (amplitude of kobs2 out of total absorbance change): 2.63 ± 0.15%
  kobs1: 3.42 ± 0.03 s⁻¹
  kobs2: 0.19 ± 0.04 s⁻¹
[1]; 25 °C
  A2 (amplitude of kobs2 out of total absorbance change): 3.59 ± 0.27%
  kobs1: 4.50 ± 0.02 s⁻¹
  kobs2: 0.27 ± 0.03 s⁻¹
[1]; 30 °C
  kobs1: 5.72 ± 0.06 s⁻¹
  kobs2: 0.28 ± 0.01 s⁻¹
[1]; 35 °C
  A2 (amplitude of kobs2 out of total absorbance change): 7.05 ± 0.36%
  kobs1: 7.20 ± 0.07 s⁻¹
  kobs2: 0.42 ± 0.07 s⁻¹
[1]; 40 °C
  A2 (amplitude of kobs2 out of total absorbance change): 12.46 ± 0.45%
  kobs1: 8.66 ± 0.09 s⁻¹
[1]; [5]
  ΔCp^⧧: –0.53 ± 0.09 kJ mol^–1 K^–1
  ΔHT0^⧧: 36.7 ± 0.5 kJ mol^–1
[1]; [6]
  Isotope Effect on ΔCp^⧧: –0.11 ± 0.11 kJ mol^–1 K^–1
  Isotope Effect on ΔHT0^⧧: 6.3 ± 0.7 kJ mol^–1
  Isotope Effect on ΔST0^⧧: 5.4 ± 2.5 J mol^–1 K^–1
[2]; 5 °C
  kobs1: 2.37 ± 0.01 s⁻¹
[2]; 10 °C
  kobs1: 3.33 ± 0.03 s⁻¹
[2]; 15 °C
  kobs1: 4.59 ± 0.03 s⁻¹
[2]; 20 °C
  kobs1: 6.14 ± 0.04 s⁻¹
[2]; 25 °C
  kobs1: 8.01 ± 0.22 s⁻¹
  kobs2: 0.03 ± 0.03 s⁻¹
[2]; 30 °C
  A2 (amplitude of kobs2 out of total absorbance change): 5.83 ± 0.60%
  kobs1: 10.24 ± 0.05 s⁻¹
  kobs2: 0.16 ± 0.03 s⁻¹
[2]; 35 °C
  A2 (amplitude of kobs2 out of total absorbance change): 14.06 ± 0.45%
  kobs1: 11.89 ± 0.07 s⁻¹
  kobs2: 0.17 ± 0.01 s⁻¹
[2]; 40 °C
  A2 (amplitude of kobs2 out of total absorbance change): 31.19 ± 1.07%
  kobs1: 12.39 ± 0.22 s⁻¹
  kobs2: 0.26 ± 0.02 s⁻¹
[2]; [5]
  ΔCp^⧧: –0.78 ± 0.15 kJ mol^–1 K^–1
  ΔHT0^⧧: 31.9 ± 1.1 kJ mol^–1
  ΔST0^⧧: –120.5 ± 3.7 J mol^–1 K^–1
[2]; [6]
  Isotope Effect on ΔCp^⧧: 0.14 ± 0.19 kJ mol^–1 K^–1
  Isotope Effect on ΔHT0^⧧: 8.6 ± 1.27 kJ mol^–1
  Isotope Effect on ΔST0^⧧: 13.3 ± 5.6 J mol^–1 K^–1
[3]; pH 6, MTEN buffer
  ΔCp⧧: -0.57 ± 0.15 kJ mol-1 K-1
  ΔHT0⧧: 7.89 ± 0.22 kcal/mol
  Isotope effect on ΔCp⧧: 0.01 ± 0.18 kJ mol-1 K-1
  Isotope effect on ΔHT0⧧: 1.39 ± 0.263 kcal/mol
  Isotope effect on ΔST0⧧: 3.7 ± 3.5 J mol-1 K-1
[3]; pH 7, MTEN buffer
  ΔCp⧧: -0.54 ± 0.09 kJ mol-1 K-1
  ΔHT0⧧: 8.27 ± 0.12 kcal/mol
  ΔST0⧧: -115.0 ± 1.8 J mol-1 K-1
  Isotope effect on ΔCp⧧: 0.07 ± 0.12 kJ mol-1 K-1
  Isotope effect on ΔHT0⧧: 1.67 ± 0.17 kcal/mol
  Isotope effect on ΔST0⧧: 7.7 ± 2.4 J mol-1 K-1
[3]; pH 9, MTEN buffer
  ΔCp⧧: -0.48 ± 0.07 kJ mol-1 K-1
  ΔHT0⧧: 8.48 ± 0.096 kcal/mol
  ΔST0⧧: -111.9 ± 1.3 J mol-1 K-1
  Isotope effect on ΔCp⧧: -0.03 ± 0.13 kJ mol-1 K-1
  Isotope effect on ΔHT0⧧: 1.58 ± 0.19 kcal/mol
  Isotope effect on ΔST0⧧: 6.7 ± 2.6 J mol-1 K-1
[4]; 5 °C
  kobs1: 1.51 ± 0.01 s⁻¹
[4]; 10 °C
  kobs1: 2.13 ± 0.01 s⁻¹
[4]; 15 °C
  kobs1: 2.90 ± 0.01 s⁻¹
[4]; 20 °C
  kobs1: 3.95 ± 0.02 s⁻¹
[4]; 25 °C
  kobs1: 5.20 ± 0.04 s⁻¹
[4]; 30 °C
  kobs1: 6.59 ± 0.04 s⁻¹
[4]; 35 °C
  A2 (amplitude of kobs2 out of total absorbance change): 2.54 ± 0.53%
  kobs1: 8.48 ± 0.03 s⁻¹
  kobs2: 1.22 ± 0.45 s⁻¹
[4]; 40 °C
  A2 (amplitude of kobs2 out of total absorbance change): 3.41 ± 0.65%
  kobs1: 9.96 ± 0.18 s⁻¹
  kobs2: 1.11 ± 0.24 s⁻¹
[4]; [5]
  ΔCp^⧧: –0.32 ± 0.04 kJ mol^–1 K^–1
  ΔHT0^⧧: 36.8 ± 0.3 kJ mol^–1
[4]; [6]
  Isotope Effect on ΔCp^⧧: 0.18 ± 0.06 kJ mol^–1 K^–1
  Isotope Effect on ΔHT0^⧧ (ΔΔHT0^⧧): 6.4 ± 0.4 kJ mol^–1
  Isotope Effect on ΔST0^⧧: 5.8 ± 1.5 J mol^–1 K^–1
